We go through one substance from patent publication US20230172882A1, “Method For Treating Pancreatic Cancer” (Lantern Pharma Inc., priority 2020, published 2023).

For data set [1], the system named is pancreatic cancer cell lines. Description: Cell viability, first study of 4 pancreatic cancer cell lines, 72 h. The format is cell-based. The procedure:
(§1) Individual cell lines were treated with LP-184 for 72 hours and cell viability was assayed. IC50 values were generated from dose response curves plotted in GraphPad Prism.

The subject of data set [2] is Capan-1 cell line derived xenograft tumors. Description: Capan-1 cell line derived xenograft tumors in SCID mice. The settings on record: 3 mg/kg intraperitoneal, thrice weekly for 3 weeks; end of study period, 60 days. Type of data set: in vivo. On the procedure:
All animal studies were carried out in compliance with National Institutes of Health Guidelines for animals. The doses were selected to be tolerated in xenografts. Capan-1 cell line derived xenograft tumors were implanted in SCID mice and treated either with (a) vehicle control of 95% saline/5% ethanol (N=3) or (b) 3 mg/kg LP-184 (N=5) administered by intraperitoneal injection over thrice weekly doses for 3 weeks. In other words, one group was treated with LP-184 and the other group was treated with the vehicle control.

The test system of data set [3] is pancreatic cancer cell lines. Put plainly: Cell viability, second study of pancreatic cancer cell lines, 72 h. Type of data set: cell-based. The settings on record: treated 72 hours, range across cell lines (FIG. 2), read-out: cytotoxicity in terms of IC50 value. The procedure: as §1

As usually defined, the IC50 is the concentration that inhibits the measured activity by half.

With HydroxyUreaMethyl Acylfulvene [LP-184], in data set [1] (FIG. 1 and FIG. 2, 72 hours), the “potency in pancreatic cancer cell lines” value is listed as “nanomolar potency”. The IC50 in data set [1] (first study of 4 pancreatic cancer cell lines, treated 72 hours, range across cell lines (FIG. 1), read-out: cytotoxicity in terms of IC50 values) was in the range of 110 to 310 nM; in data set [3] it was 130 to 180 nM. The “tumor volume growth / tumor regression” value in data set [2] was “Complete tumor regression”.
